Consider 1 substance from US11452781B2, “Method of preventing and treating type 1 diabetes, allograft rejection and lung fibrosis (by targeting the ATP/P2X7R axis)” (CHILDREN'S MEDICAL CENTER CORPORATION, priority 2013, dated 2022).

Entries after “also recorded” stand apart in the source; their conditions may differ.

The test system of one assay is STAT3. Nature of the assay: Phosphorylation of T-cell signaling molecules in activated CD4+ T cells (Luminex/Milliplex, Western blot). The format is cell-based, mouse. Particulars: 60 minutes after activation. How it is done: (§1) 60 minutes after anti-CD3-Ig and anti-CD28-Ig mediated activation, cells were lysed and the phosphorylation status of CREB, Erk, Akt, JNK, p38, p70 S6 Kinase, STAT3, and STAT5A/B was assessed using the Millipore Milliplex Cell Signaling Assay. […] Data were confirmed by western blot (FIG. 6D).
(§2) Several key components of T-cell receptor signaling involved in the alloimmune response were examined, and the phosphorylation kinetics following in vitro anti-CD3-Ig/anti-CD28-Ig-mediated CD4+ T-cell activation was evaluated by using the Luminex assay. […] The inventors first confirmed that Colivelin (Col) was able to restore the activation-induced phosphorylation of STAT3 in a dose-dependent manner in oATP-treated CD4+ T cells by Western blotting. […] The effect of oATP and Colivelin on STAT3 phosphorylation and T-cell function was also evaluated following cardiac transplantation.
On the technique in general: A western blot detects proteins with antibodies after separation by electrophoresis.

Assay in assay [1]: as above
It counts as cell-based, mouse. The method, then:
as §1, §2

Another assay deals with NOD mice. Kind of assay: Diabetes onset in NOD mice (prevention). The format is in vivo, mouse. How it is done: Untreated NOD mice invariably developed diabetes by 15-20 weeks of age (FIGS. 5A-5E). […] Rapamycin (0.1 mg/kg for 10 days) treatment was again synergistic with oATP treatment, inducing a further delay in the onset of diabetes (FIG. 7) with 70% of mice protected from diabetes at 25 weeks, while rapamycin treatment alone was ineffective in delaying diabetes in NOD mice (FIG. 7). This group of experiments confirmed that the ATP/P2X7R axis is indeed relevant to allo- and autoimmune responses in vivo and that P2X7R targeting can be viewed as a novel strategy to curb both responses.
Consequently, NOD mice were treated with oATP.

In assay [2] the test system is A549 cells co-cultured with PBMCs. Nature of the assay: Cytotoxicity of human PBMC upon IFN-γ stimulated A549 cells, 7 days co-culture. The format is cell-based. Particulars: increasing doses of oATP. How it is done:
FIG. 16A depicts a graph of CD8 activation levels. To better assess the response of CD8 T cells, splenocytes isolated from OT1 mice were stimulated with OVA peptide with and without (positive control) oATP (100 μM) and T cell proliferation determined. […] FIG. 16C depicts photomicroscopy images and a graph of cell growth and survival. Freshly isolated human peripheral blood mononuclear cells (PBMCs, 4×10^5/ml) were applied onto pre-seeded A549 cells (at ˜20% confluency). Cells were cultured in RPMI medium supplemented with interferon gamma (IFNγ) with or without oATP for 7 days. Shown are representative images of A549 cells, and A549 cells co-cultured with PBMCs in the presence and absence of 200 μM oATP. Images were taken on day 7 of the co-culture. […]
(§3) Outcome Measures—In vivo assessment of transplanted lung function was performed by thoracic CT scan imaging and measuring peak airway pressures (PawP) as previously described {Bizargity, #22}. ATP levels were measured from transplanted lung bronchoalveolar lavage fluid (BAL) by bioluminescent detection using Enliten ATP assay system (FF2000, Promega Corporation, Madison, Wis.). […] Immunohistochemistry was performed on frozen lung tissue sections utilizing CD4 and CD8 antibodies and isotype controls and assessed based on the average of 10 high power fields/lung allograft. […]

In assay [3] the test system is OT1 splenocytes (CD8 T cells). Nature of the assay: OT1 splenocytes stimulated with OVA peptide, proliferation. It counts as cell-based, mouse. Particulars: oATP 100 μM. How it is done: FIG. 16A depicts a graph of CD8 activation levels. To better assess the response of CD8 T cells, splenocytes isolated from OT1 mice were stimulated with OVA peptide with and without (positive control) oATP (100 μM) and T cell proliferation determined. […] FIG. 16C depicts photomicroscopy images and a graph of cell growth and survival. Freshly isolated human peripheral blood mononuclear cells (PBMCs, 4×10^5/ml) were applied onto pre-seeded A549 cells (at ˜20% confluency). Cells were cultured in RPMI medium supplemented with interferon gamma (IFNγ) with or without oATP for 7 days. […]
as §3
To assess the inhibitory actions of oATP upon CD8 cells, a CD8 specific response was analyzed by utilizing OT1 splenocytes stimulated with OVA peptide. […]

A further assay relates to mouse CD8 T cells. Kind of assay: Isolated CD8 T cells stimulated with anti-CD3, TNF-α, IFN-γ and granzyme B expression. The format is cell-based. The conditions noted are these: anti-CD3 10 μg/ml.

With periodate-oxidized ATP [oATP], in the assay on STAT3, the “activation-induced STAT3 phosphorylation” value is recorded as “reduced level; also recorded: prevented phosphorylation of STAT3; also recorded: significant inhibition”. Also, in assay [1], the “phosphorylation of JNK/SAPK1, p70/S6, or STAT5” value is “unaffected”. In addition, the “delay of diabetes onset” value in the assay with NOD mice (4-week-old NOD mice, daily i.p. for 30 days (early prevention)) is “delays diabetes onset”; in the assay on NOD mice (10-week-old NOD mice (late prevention)), “delay”. In the assay with NOD mice (10-week-old NOD mice, oATP 250 μg i.p. daily 14 days, Rapamycin 0.1 mg/kg 10 days), the “mice protected from diabetes at 25 weeks of age” value worked out at 50%. For the same substance, in assay [2], the “cytolytic activity of PBMC on A549 cells” value is “remarkable reduction”. The “allo-specific CD8 activation/proliferation” value in assay [3] is reported as “dramatic reduction; also recorded: significant reduction”. Moreover, the “expression of TNF-α, IFN-γ and granzyme B” value with mouse CD8 T cells is on record as “reduction; also recorded: impaired activation”.
